The test system of data set [1] is methicillin-resistant S. aureus (FPR3757). The data set is described as follows: MIC against clinical MRSA strain FPR3757 in Mueller-Hinton broth (CLSI). The data set is classed as cell-based, Staphylococcus aureus. The following applies: Staphylococcus aureus, MRSA, MRSA clinical strain FPR3757, Mueller-Hinton broth, CLSI guidelines, complete inhibition of observable growth; read-out: MIC.

The next data set relates to E. faecium DHMC #1. The data set is described as follows: Antimicrobial susceptibility MIC, E. faecium DHMC #1. In kind it is cell-based. The conditions noted are these: Enterococcus faecium; E. faecium strain DHMC #1. The text has this:
(§1) The first set of compounds evaluated were analogs at the C-7 and C-8 positions of the initial quinolone hit DNAC-2 since the other HTS hits identified (data not shown) were substituted at these positions (Table 1). Applicants first explored modification at the C-7 position with a small series of electron-donating and withdrawing substituents. […] However, analogs containing electron donating groups at C-7 including ethyl 7, benzyloxy 8, methoxy 9 and methylthio 10 are weakly active displaying MICs of 320-640 μg/mL indicating electron-donating substituents at C-7 are poorly tolerated. […] The C-8 position was evaluated with trifluoromethyl 4 and trifluoromethoxy 5 containing the optimal C-7 substituents. Both 4 and 5 are equipotent to the corresponding C-7 analogs 2 and 3 indicating some flexibility of the quinolone scaffold.
(§2) The compounds maintain activity against Staphylococcus epidermidis; however, 31, 111 and 123 all lose considerable potency against Enterococcus faecalis and Enterococcus faecium, which contribute heavily, along with MRSA, to healthcare-associated infections.

The next data set concerns S. aureus MW2. The data set is described as follows: Antimicrobial susceptibility MIC, S. aureus MW2. In kind it is cell-based. The following applies: Staphylococcus aureus; S. aureus strain MW2; read-out: MIC.
Description: as §1, §2

The next data set in a line: Solubility. In kind it is physicochemical.
Another data set concerns S. aureus COL. Description: Antimicrobial susceptibility MIC, S. aureus COL. The data set is classed as cell-based. The following applies: Staphylococcus aureus; S. aureus strain COL.
Description: as §1, §2

The next data set deals with S. epidermidis NIH04003. The data set is described as follows: Antimicrobial susceptibility MIC, S. epidermidis NIH04003. In kind it is cell-based. The conditions noted are these: Staphylococcus epidermidis; S. epidermidis strain NIH04003.
Description: as §1, §2

Data set [2] deals with clinical methicillin-resistant Staphylococcus aureus (MRSA) isolates. Description: MIC against panel of MRSA / staphylococcal strains (text summaries). The data set is classed as cell-based. The conditions noted are these: six S. aureus strains of Table 9, read-out: MIC towards all six S. aureus strains.
Description: as §1, §2

The subject of a further data set is S. aureus NRS71. Description: Antimicrobial susceptibility MIC, S. aureus NRS71. The data set is classed as cell-based. The conditions noted are these: Staphylococcus aureus; S. aureus strain NRS71.
Description: as §1, §2

The next data set concerns S. aureus N325. The data set is described as follows: Antimicrobial susceptibility MIC, S. aureus N325. The conditions noted are these: Staphylococcus aureus; S. aureus strain N325. The data set is classed as cell-based.
Description: as §1, §2

A further data set relates to S. aureus NIH04008. Description: Antimicrobial susceptibility MIC, S. aureus NIH04008. The data set is classed as cell-based. The following applies: Staphylococcus aureus; S. aureus strain NIH04008; read-out: MIC.
Description: as §1, §2

The subject of data set [3] is erythrocyte membranes (versus S. aureus membranes). Description: in vitro. The conditions noted are these: sheep; read-out: selectivity for S. aureus membranes over erythrocyte membranes. The data set is classed as cell-based, sheep. The procedure: FIG. 8 illustrates percent hemolysis analysis of sheep erythrocytes. Concentration-dependent hemolysis was measured by monitoring the optical density (OD)540 of PBS-washed sheep erythrocytes. Complete hemolysis (100%) was confirmed by treatment of erythrocytes with Triton X-100. Data points represent the mean±SD of triplicate experiments.
The macromolecular synthesis assay, TEM, and FM experiments were all consistent with membrane disruption. […] The high membrane selectivity of the 5-aminoquinolin-4-ones in this assay is impressive and is in accordance with the observed therapeutic index (CC50/MIC).

The test system of the next data set is E. faecalis DHMC #1. Description: Antimicrobial susceptibility MIC, E. faecalis DHMC #1. In kind it is cell-based. The conditions noted are these: Enterococcus faecalis; E. faecalis strain DHMC #1.
Description: as §1, §2

Structures are written as SMILES. ≈ marks a conversion by molar mass, not a printed value.

A word on the MIC: it is the smallest concentration in the dilution series that meets the test's criterion for growth inhibition. Turning to `O=c1cc(C(F)(F)F)[nH]c2cc(C(F)(F)F)cc(Nc3ccc(C(F)(F)F)cn3)c12` [Compound 111], the MIC was under 0.06 µg/mL in [1]; 2 µg/mL (≈ 4.53 µM) against E. faecium DHMC #1; under 0.06 µg/mL in the data set on S. aureus MW2; under 0.06 µg/mL with S. aureus COL; under 0.06 µg/mL in the data set with S. epidermidis NIH04003; under 0.06 µg/mL in [2]. The MIC was under 0.06 µg/mL against S. aureus NRS71, under 0.06 µg/mL against S. aureus N325, under 0.06 µg/mL with S. aureus NIH04008 and 2 µg/mL (≈ 4.53 µM) in the data set with E. faecalis DHMC #1. Further, in the data set “Solubility”, the solubility result is given as “low solubility”. Besides, in [3], the selectivity ratio was over 500.

(Values after patent US20220274927A1, “MEMBRANE-ACTIVE ANTI-BACTERIAL COMPOUNDS AND USES THEREOF” (Trustees of Dartmouth College, priority 2019, published 2022).)
